The subject of data set [1] is relevant antigen (peptide and LCP constructs). Nature of the data set: IgG antibody titres in sera of immunised mice against the relevant antigen (ELISA). In kind it is in vivo, C57BL/6 mice. To be noted: 30 µg s.c. on day 0, 21, 28, 35, LCP in PBS with 1% DMSO, peptides mixed with PADRE and CFA, ELISA against matched antigen. As to the method:
A total of 70 female C57BL/6 mice (6–8 weeks old) were purchased from the University of Queensland Biological Resources (UQBR), and housed in the AIBN animal house facility. All experimental procedures performed in this study were carried out in accordance with National Health & Medical Research Council guidelines and approved by The University of Queensland Animal Ethics Committee. Mice (n=5 per group) were injected subcutaneously at the tail base on day 0, 21, 28, 35 (Supplementary, Fig S15) with 30 µg of each construct in phosphate-buffered saline (PBS). 1% DMSO was included for LCP constructs to aid solubility. The negative control group were administered with 50 μl of PBS. Control groups included peptides (ØP1,2 and IIP3–5) physically mixed with PADRE (1:1) and emulsified in a total volume of 50 μl of complete Freund’s adjuvant (CFA)-PBS (1:1) for the first immunisation and PADRE-peptide mixture in PBS for subsequent immunisations. […]
An indirect enzyme-linked immunosorbent assay (ELISA) was used to determine the IgG antibody titre. […] Plates were washed as above and secondary antibody binding was detected with the addition of 3,3′,5,5′-Tetramethylbenzidine (TMB) reagent (Thermo Fisher Scientific) at 50 µl/well. Reactions were stopped with 2M H2SO4 (25 µl/well) and absorbance was read at 450 nm on a SpectraMax® 190 (Molecular Devices) microplate reader.
In general terms: In an ELISA, binding on a coated surface is turned into a signal by an enzyme label.

In data set [2] the target is Motavizumab (site II specific). Nature of the data set: ELISA binding of Motavizumab to plate-coated vaccine constructs, one-site model. The arrangement: species or system human. Particulars: serial dilution of antibody on ELISA plates coated with construct; saturation one-site specific binding model; read-out: Mota kD. On the procedure:
(§1) We further tested the ability of site II and site Ø specific antibodies (Motavizumab and D25, respectively) to recognise the peptides and LCP constructs. Dissociation constant (kD) values were derived from a saturation one-site model. D25 clearly recognised the ØLCP2 (66 ± 14 nM) but not ØLCP1 (Fig. 3A). In comparison, in our analysis D25 bound to the native pre-fusion RSV F (FDs-Cav1) with approximately […] stronger avidity (0.92 ± 0.08 nM). Motavizumab bound IILCP4 with the highest avidity (3.8 ± 0.9 nM), while in our analysis Motavizumab bound FDs-Cav1 with approximately 25 fold stronger avidity (0.15 ± 0.01 nM). Motavizumab also recognised IILCP3, 5, 6 and 7 and IIP5 (Fig. 3B). In general binding avidity was stronger for LCP constructs compared to original peptides.
Figure 3 Binding avidity of monoclonal antibodies against vaccine candidates. Antibody binding assessed by serial dilution of antibody on ELISA plates were coated with vaccine constructs and curve fitting by non-linear regression with a one site specific binding model using Graphpad Prism 7 software. (A) D25 antibody recognised ØLCP2 (kD: 66 ± 014 nM) and to a lesser extent ØP2 (kD: 720 ± 036nM). Binding to FDs Cav1 used as positive control (kD: 0.92 ± 00.08 nM). Motavizumab recognised IILCP4 (kD: 3.8 ± 00.9nM), IILCP5 (kD: 16 ± 03nM), IILCP7 (kD: 17 ± 011nM), IIP5 (kD: 23 ± 05nM) and to a lesser extent IILCP6 (kD: 40 ± 04nM). Binding FDs Cav1 was used as a positive control (kD: 0.15 ± 00.01nM).
An indirect enzyme-linked immunosorbent assay (ELISA) was used to determine the IgG antibody titre. Peptide antigens were used to coat 96-well plates (TITERTEK®) at a concentration of 5 μg/ml in 20 mM sodium carbonate buffer (pH 9.6), overnight at 4 °C. […] Plates were washed as above and secondary antibody binding was detected with the addition of 3,3′,5,5′-Tetramethylbenzidine (TMB) reagent (Thermo Fisher Scientific) at 50 µl/well. Reactions were stopped with 2M H2SO4 (25 µl/well) and absorbance was read at 450 nm on a SpectraMax® 190 (Molecular Devices) microplate reader.

The nature of data set [3]: Particle size analysis by dynamic light scattering. Format: physicochemical. To be noted: 1% DMSO in PBS, 600 µg/ml, 25 °C, 173° backscattering, five replicates. As to the method: Peptides were dissolved in 1% DMSO in phosphate buffered saline (PBS) to a concentration of 600 µg/ml. Particle size was measured using a Zetasizer Nano ZP instrument (Malvern Instrument, UK) via M3-PALS technique with a 173° backscattering angle, at 25 °C. Measurement was performed in five replicates.

Data set [4] can be described thus: Secondary structure analysis by circular dichroism. In kind it is physicochemical. Particulars: 600 µg/ml; spectra not detected. On the procedure:
Conformational studies of constructs were performed using a J-710 spectropolarimeter (Jasco Corporation, Japan). Samples with 600 µg/ml concentration were transferred into a low volume quartz cuvette with 0.1 cm path length. CD spectra were analysed between 250 nm and 190 nm wavelengths. Measurements were performed in triplicate (reported as an average of readings). Spectral results are reported as mean residual ellipticity (θ) versus wavelength (nm).
A general note: Circular dichroism is the unequal absorption of left and right circularly polarised light.

In data set [5] the test system is D25 antibody (site Ø specific). Nature of the data set: ELISA binding of D25 antibody to plate-coated vaccine constructs, one-site model. More on the design: species or system human. To be noted: construct coated on plate. As to the method: as §1
Figure 3 Binding avidity of monoclonal antibodies against vaccine candidates. Antibody binding assessed by serial dilution of antibody on ELISA plates were coated with vaccine constructs and curve fitting by non-linear regression with a one site specific binding model using Graphpad Prism 7 software. […]
An indirect enzyme-linked immunosorbent assay (ELISA) was used to determine the IgG antibody titre. […] Plates were washed as above and secondary antibody binding was detected with the addition of 3,3′,5,5′-Tetramethylbenzidine (TMB) reagent (Thermo Fisher Scientific) at 50 µl/well. […]

For a further data set, the system named is RSV. Nature of the data set: RSV plaque reduction neutralisation test (PRNT). Format: cell-based, RSV (A2). Particulars: purified chimeric recombinant anti-F antibody, Vero cells. As to the method: Vero cells were seeded in 96-well tissue culture plates (Nunc®) at 4 × 10^4 cells/well in Opti-MEM supplemented with 3% FBS and 100 U penicillin with 100 μg/ml streptomycin. After overnight growth to allow a confluent monolayer, serial dilutions of virus stock were prepared in Opti-MEM (2% FBS and 100 U penicillin with 100 μg/ml streptomycin) and incubated at 37 °C, 5% CO2 for 1 h. Cell monolayers were inoculated with 50 μL of virus and incubated. After 1 h, the inoculum was replaced with overlay medium (Medium 199 with 3% methylcellulose, 2% FBS, 100 U penicillin with 100 μg/ml streptomycin) and incubated at 37 °C for 72 h. Overlay medium was aspirated and cells were fixed (80% acetone) and immunostained with a recombinant anti-RSV monoclonal antibody followed by IRDye® 800CW goat anti-mouse IgG, LI-COR Biosciences (1:2500). Plaques were read using Odyssey® Imager (LI-COR Biosciences) and titre was recorded as PFU/ml.
PRNT assays were performed as previously described. Briefly, pooled Sera was heat inactivated at 56 °C for 30 min. Dilutions of serum were combined with 50 PFU of RSV in serum free Opti-MEM and incubated at 37 °C for 1 h before applying to confluent monolayers of Vero cells in TC96-well plates. Cells were incubated with the serum-virus mixture at 37 °C for 1 h. Inoculum was aspirated and overlay medium was added and cells were incubated at 37 °C for 72 h. […]
For orientation: Plaque reduction counts the foci of infection that form in a cell layer.

“Also recorded” adds a separate entry of the source. Bridge positions count the residues as written; N and C are the ends. Square brackets hold non-standard residues; d marks the D form. I, II: the chains in the order shown. ξ: configuration not given here. ξGly(tetradecyl) = CCCCCCCCCCCCCCC(N)C(=O)O

A word on the Kd: it is the free concentration of one partner at which half of the binding sites on the other are occupied at equilibrium, for simple one-to-one binding.

Turning to “Ac-LTNSELLSLINDMPITNDQKKLMSNNVQIVRQQS-NH2 [IIP5]”, the “antigen specific IgG response in sera (in words)” value in data set [1] is “higher specific IgG titres; also recorded: strong response”. Further, the Kd in data set [2] came to 23 ± 5 nM.
As for “I: Ac-LTNSELLSLINDMPITNDQKKLMSNNVQIVRQQS / II: Ac-AKFVAAWTLKAAAKSS[ξGly(tetradecyl)][ξGly(tetradecyl)]-NH2 (amide I:C-II:14) [IILCP5]”, the “antigen specific IgG response in sera (in words)” value in data set [1] was “higher specific IgG titres; also recorded: robust antibody response”. Moreover, the “Diameter DLS” value in data set [3] stood at 181±25 nm. Besides, the Kd in data set [2] was 16 ± 3 nM.
“I: Ac-[ξGly(tetradecyl)][ξGly(tetradecyl)]LTNSELLSLINDMPITNDQKKLMSNNVQIVRQQS / II: Ac-AKFVAAWTLKAAAKSS[ξGly(tetradecyl)][ξGly(tetradecyl)]-NH2 (amide I:C-II:14) [IILCP7]”: the “aggregation under CD measurement condition” value in data set [4] was “aggregation”. In data set [3], the “Diameter DLS” value came out at 261±20 nm. Further, in data set [2], the Kd stood at 17 ± 11 nM.
KNYIDKQLLPIVNKQS [ØP1]: in data set [5], the “recognition by D25 (in words)” value was “Neither ØP1 nor ØLCP1 bound to D25”.
With Motavizumab, the “neutralisation of RSV by purified antibody (in words)” value in the data set with RSV is listed as “potent neutralisation”.
